Here are results for two compounds from US20250213701A1, “MEDICAMENT FOR TREATING HUMAN TUMOR BASED ON ERF3A-TARGETING PROTEOLYSIS MECHANISM” (SUZHOU DEGEN BIO-MEDICAL CO., LTD., priority 2022, published 2025).

Molecules are shown by their SMILES.

Assay [1] deals with 22Rv1 cells. The assay can be described thus: Anti-proliferative toxicity against prostate cancer cell line 22Rv1 (CCK8). It counts as cell-based, human. The note with it: 3 days; for IC50: Homo sapiens, 72 h, CCK8. The procedure, abridged: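 22Rv1 cells pre-cultured for 48 h, then exposed to compounds at 0.00001-1.0 μM final, in triplicate, for 3 days. Viability read by CCK8 absorbance at 450 nm after 1-4 h at 37 °C.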

Assay [2] deals with PC-3 cells. The assay can be described thus: Anti-proliferative toxicity against prostate cancer cell line PC-3 (CCK8). The note with it: Homo sapiens, 72 h, 3 days. It counts as cell-based, human. The gist of the method:
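PC-3 cells (4000/well, pre-cultured 24 h) exposed in triplicate to compound at final 0.00001-1.0 μM for 3 days at 37 °C, 5% CO2. Viability read by CCK8, 1-4 h at 37 °C, absorbance at 450 nm.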

Assay [3] concerns VCaP cells. The assay can be described thus: Anti-proliferative toxicity against prostate cancer cell line Vcap (CCK8). It counts as cell-based, human. The note with it: 3 days; for IC50: Homo sapiens, 72 h, CCK8. The gist of the method:
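VCaP cells (DMEM, 10% FBS) seeded 20000 cells/well, cultured 72 h, then exposed in triplicate to compound at final well concentrations of 0.00001–0.16 μM for 3 days at 37 °C, 5% CO2. Viability by CCK8, 1–4 h at 37 °C, absorbance at 450 nm.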

The subject of assay [4] is MDA-MB-231 cells. The assay can be described thus: Anti-proliferative toxicity of C63 in tumor cell lines (CCK8): MDA-MB-231. It counts as cell-based. The note with it: Homo sapiens, 72 h, 3 days, read-out: Inhibition rate. The method, then:
Example 83: Detection of Anti-Proliferative Toxicity of C63 in Some Tumor Cell Lines
MDA-MB-231 cells (purchased from the Cell Bank of the Chinese Academy of Sciences, Cat. No. TCHu227) were subcultured in a culture medium (L15 medium+1% penicillin-streptomycin dual-antibiotic solution+10% fetal bovine serum) in an incubator at 37° C.
MDA-MB-231 cells were seeded at 5000 cells/well (90 μL) on a 96-well plate and cultured for 24 h.
10 mM compound stock solutions were prepared in DMSO.
The compound stock solution was diluted with DMSO to give DMSO solutions 1-9 at concentrations of 0 μM, 2500 μM, 500 μM, 100 μM, 20 μM, 4 μM, 0.8 μM, 0.16 μM, and 0.032 μM.
2 μL of each of solutions 1-9 was added to 98 μL of the medium to give mixed solutions 11-19 of the compound and the medium.
10 μL of each of solutions 11-19 was added to the above cell seed solution to give a total volume of 100 μL (90 μL+10 μL).
The concentrations of the compound in the wells were 0 μM, 5.0 μM, 1.0 μM, 0.2 μM, 0.04 μM, 0.008 μM, 0.0016 μM, 0.00032 μM, and 0.000064 μM. All concentrations were in triplicate.
After the above-treated cells were cultured for 3 days, 10 μL of the CCK8 solution (DOJINDO, Cat. No. PF725) was added to each well. The plate was incubated in an incubator at 37° C. for 1-4 h and then detected on a microplate reader for the reading at 450 nm.

Broadly, the IC50 is the midpoint of a concentration-inhibition curve. With `C[C@]12C=CC(=O)N[C@@H]1CC[C@@H]1[C@@H]2CC[C@]2(C)[C@@H](C(=O)Nc3cccc(N[C@@H]4CCC[C@@H](Nc5cccc6c5C(=O)N(C5CCC(=O)NC5=O)C6=O)C4)c3)CC[C@@H]12` (stereo partly drawn) [C59, N-(3-(N—(N-(4-(2-(3-(2,6-dioxopiperidine))-isoindole-1,3-dione))-1R,3R-cyclohexanediamine))phenyl)-3-oxo-4-aza-5α-androst-1-ene-17β-carboxamide], the “Anti-proliferative toxicity data in 22Rv1 cells” value in assay [1] (0.00001 μM) is recorded as 8.3%; in assay [1] (0.00006 μM), 41.3%; in assay [1] (0.00032 μM) it was 79.6%; in assay [1] (0.00160 μM), 80.7%; in assay [1] (0.00800 μM) it was 81.1%; in assay [1] (0.04000 μM) it was 81.1%. Besides, the “Anti-proliferative toxicity data in 22Rv1 cells” value is 81.9% in assay [1] (0.20000 μM) and 82.3% in assay [1] (1.00000 μM). Moreover, the IC50 in assay [1] is 0.1 to 10 nM; in assay [2], 0.1 to 10 nM; in assay [3], at most 0.1 nM. Moreover, the “Anti-proliferative toxicity data in VCaP cells” value in assay [3] (0.00001 μM) worked out at 0.6%; in assay [3] (0.00005 μM) it was 62.5%; in assay [3] (0.00010 μM), 78.6%; in assay [3] (0.00030 μM), 88.3%; in assay [3] (0.00100 μM) it was 92.7%; in assay [3] (0.00300 μM) it was 93.5%. For the same compound, the “Anti-proliferative toxicity data in VCaP cells” value in assay [3] (0.00600 μM) amounted to 94.1%; in assay [3] (0.03200 μM) it was 94.6%; in assay [3] (0.16000 μM) it was 94.6%.

What is called inhibition is the change of the read-out against control, counted positive when it falls. In the case of `C[C@]12C=CC(=O)N[C@@H]1CC[C@@H]1[C@@H]2CC[C@]2(C)[C@@H](C(=O)Nc3cccc(N[C@@H]4CCC[C@@H](Nc5cccc6c5C(=O)N([C@H]5CCC(=O)NC5=O)C6=O)C4)c3)CC[C@@H]12` [C63, N-(3-(N—(N-(4-(2-(3S-(2,6-dioxopiperidine))-isoindole-1,3-dione))-1R,3R-cyclohexanediamine))phenyl)-3-oxo-4-aza-5α-androst-1-ene-17β-carboxamide], the “Anti-proliferative toxicity data in 22Rv1 cells” value in assay [1] (0.00001 μM) is reported as 23.5%; in assay [1] (0.00006 μM), 62.4%; in assay [1] (0.00032 μM), 76.5%; in assay [1] (0.00160 μM), 87.8%; in assay [1] (0.00800 μM) it was 86.5%; in assay [1] (0.04000 μM) it was 88.0%. Further, the “Anti-proliferative toxicity data in 22Rv1 cells” value in assay [1] (0.20000 μM) is given as 86.9%; in assay [1] (1.00000 μM), 84.5%. The values for the concentration for half-maximal inhibition (IC50) in assay [1], in assay [2] and in assay [3] were 0.1 to 10 nM, 0.1 to 10 nM and at most 0.1 nM, respectively. Also, the inhibition at 64 pM in assay [4] (0.000064 μM) is 27.6%. Moreover, in assay [4] (0.000320 μM), the inhibition at 0.00032 µM was 62.8%. Further, the inhibition at 0.0016 µM in assay [4] (0.001600 μM) was determined as 75.6%. Moreover, the inhibition at 0.008 µM in assay [4] (0.008000 μM) is 79.3%. Besides, in assay [4] (0.040000 μM), the inhibition at 0.04 µM came to 80.1%. The inhibition at 0.2 µM in assay [4] (0.200000 μM) was 79.9%. The inhibition at 1 µM in assay [4] (1.000000 μM) was determined as 78.8%. In addition, the inhibition at 5 µM in assay [4] (5.000000 μM) worked out at 80.4%. Besides, the “Anti-proliferative toxicity data in VCaP cells” value worked out at 25.2% in assay [3] (0.00001 μM); 75.7% in assay [3] (0.00005 μM); 80.2% in assay [3] (0.00010 μM); 89.2% in assay [3] (0.00030 μM); 93.1% in assay [3] (0.00100 μM); 94.0% in assay [3] (0.00300 μM). The “Anti-proliferative toxicity data in VCaP cells” value in assay [3] (0.00600 μM) was 94.3%; in assay [3] (0.03200 μM), 94.5%; in assay [3] (0.16000 μM), 94.8%.
